Experiments:
CSN = biological target: T1, CSN (Schizosaccharomyces pombe, UniProt O94454); assay: Nedd8 conjugate cleavage (deneddylation of Pcu1/Cul1) by CSN in S. pombe cell extracts, immunoblot; assay type: biochemical; conditions: 30 min at 30° C.; for inhibition of Nedd8 conjugate cleavage activity of CSN (Nedd8 deconjugation from Cul1): 1 mM chelator
T1 construct: addition (+) of wild type lysate (which contained active CSN); endogenous in cells; host or cells: wild type S. pombe cell lysate
Description: On the basis of this analysis, it was hypothesized that CSN represents the founding member of a novel class of metalloproteases. To test this hypothesis, the effect of a divalent cation chelator on the Nedd8 conjugate cleavage activity associated with CSN was examined. Mutant csn5Δ S. pombe cell extract that contained neddylated Pcu1 was incubated either alone (−) or following addition (+) of wild type lysate (which contained active CSN) supplemented with either methanol vehicle (MeOH), 1 mM 1,10-phenanthroline (O-PT), or 1 mM, 10 mM, or 20 mM EDTA.
Reactions were incubated 30 min at 30° C. and terminated by addition of SDS-PAGE sample buffer, fractionated by SDS-PAGE, transferred to nitrocellulose, and immunoblotted with antibodies directed against S. pombe Cul1. Filter-bound antibodies were decorated with goat-anti-rabbit antibody conjugated to horse radish peroxidase and visualized with ECL reagents (Lyapina et al., supra, 2001).
The status of Nedd8 conjugation to Cul1 was determined by the mobility of Cul1 on the SDS-polyacrylamide gel. Nedd8-conjugated Cul1 migrated more slowly than unmodified Cul.

26S proteasome [1] = conditions: prior work; cited from earlier work
26S proteasome [2] = biological target: T2, 26S proteasome (Saccharomyces cerevisiae, UniProt P25043+P30656+P38624+P43588); assay: Deubiquitination and degradation of multiubiquitinated Sic1 by purified 26S proteasome, immunoblot; assay type: biochemical; conditions: 2.5 μM; in the presence of epoxomicin
T2 construct: made in house; host or cells: Saccharomyces cerevisiae

T1 sequence (O94454 whole entry): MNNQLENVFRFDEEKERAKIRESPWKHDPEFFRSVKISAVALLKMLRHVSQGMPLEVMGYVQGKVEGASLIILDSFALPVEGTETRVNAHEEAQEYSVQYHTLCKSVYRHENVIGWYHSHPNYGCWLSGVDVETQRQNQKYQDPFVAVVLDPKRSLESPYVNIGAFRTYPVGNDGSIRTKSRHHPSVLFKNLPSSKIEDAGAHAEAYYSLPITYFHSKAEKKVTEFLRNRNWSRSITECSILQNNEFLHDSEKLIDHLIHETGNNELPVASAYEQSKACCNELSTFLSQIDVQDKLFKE
T1 sequence (O94308 whole entry partner): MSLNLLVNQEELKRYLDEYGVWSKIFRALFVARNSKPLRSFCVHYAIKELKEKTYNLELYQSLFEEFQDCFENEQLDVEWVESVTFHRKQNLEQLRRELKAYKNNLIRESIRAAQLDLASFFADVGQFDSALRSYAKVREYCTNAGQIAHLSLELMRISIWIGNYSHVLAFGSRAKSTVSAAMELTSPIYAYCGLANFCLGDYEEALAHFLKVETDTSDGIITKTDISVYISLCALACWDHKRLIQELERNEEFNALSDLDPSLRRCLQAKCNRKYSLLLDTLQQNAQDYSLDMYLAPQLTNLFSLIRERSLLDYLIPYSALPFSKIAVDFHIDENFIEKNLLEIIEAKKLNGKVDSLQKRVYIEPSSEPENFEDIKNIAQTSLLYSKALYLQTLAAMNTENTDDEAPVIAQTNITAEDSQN
T1 sequence (Q9HFR0 whole entry partner): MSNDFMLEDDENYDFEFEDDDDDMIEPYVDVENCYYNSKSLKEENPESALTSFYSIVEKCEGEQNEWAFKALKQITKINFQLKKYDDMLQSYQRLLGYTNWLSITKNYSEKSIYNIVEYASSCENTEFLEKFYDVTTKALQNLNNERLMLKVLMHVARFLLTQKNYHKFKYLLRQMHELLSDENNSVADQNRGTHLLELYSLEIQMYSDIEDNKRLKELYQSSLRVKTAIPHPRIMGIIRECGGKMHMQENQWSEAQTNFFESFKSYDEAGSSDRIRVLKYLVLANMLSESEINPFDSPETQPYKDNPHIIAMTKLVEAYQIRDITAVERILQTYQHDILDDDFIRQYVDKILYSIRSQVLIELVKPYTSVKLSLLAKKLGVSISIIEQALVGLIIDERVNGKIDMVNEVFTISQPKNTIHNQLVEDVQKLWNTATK
T1 sequence (O13895 whole entry partner): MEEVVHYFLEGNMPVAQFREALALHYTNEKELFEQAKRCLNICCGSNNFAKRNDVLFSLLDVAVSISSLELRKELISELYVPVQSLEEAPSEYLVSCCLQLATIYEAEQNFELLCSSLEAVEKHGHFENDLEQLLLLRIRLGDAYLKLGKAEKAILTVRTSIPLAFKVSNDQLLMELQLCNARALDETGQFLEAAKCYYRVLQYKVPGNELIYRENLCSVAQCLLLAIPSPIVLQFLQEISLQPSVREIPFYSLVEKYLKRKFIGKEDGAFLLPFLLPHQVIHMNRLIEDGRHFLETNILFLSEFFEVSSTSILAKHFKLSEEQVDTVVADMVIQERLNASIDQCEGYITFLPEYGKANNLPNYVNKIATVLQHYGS
T1 sequence (Q8WZK4 whole entry partner): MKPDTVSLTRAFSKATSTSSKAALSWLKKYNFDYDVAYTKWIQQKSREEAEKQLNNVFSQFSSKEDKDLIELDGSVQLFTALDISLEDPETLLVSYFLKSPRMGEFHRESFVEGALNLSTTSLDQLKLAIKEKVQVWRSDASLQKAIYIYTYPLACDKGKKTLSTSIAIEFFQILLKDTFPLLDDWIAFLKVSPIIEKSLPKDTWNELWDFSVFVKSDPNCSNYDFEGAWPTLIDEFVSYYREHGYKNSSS
T1 sequence (Q9UUJ7 whole entry partner): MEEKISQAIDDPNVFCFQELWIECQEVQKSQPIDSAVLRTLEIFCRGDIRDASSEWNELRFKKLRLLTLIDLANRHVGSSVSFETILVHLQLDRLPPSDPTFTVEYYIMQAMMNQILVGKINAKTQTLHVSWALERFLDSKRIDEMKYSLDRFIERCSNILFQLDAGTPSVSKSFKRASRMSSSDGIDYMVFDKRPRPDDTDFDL

Row | inhibition of Nedd8 conjugate cleavage activity of CSN (Nedd8 deconjugation from Cul1) (CSN) | inhibition of Nedd8 deconjugation from Cul1 by CSN (CSN; 10 mM) | inhibition of Nedd8 deconjugation from Cul1 by CSN (CSN; 20 mM) | Molecule | sensitivity of 26S proteasome-associated isopeptidase activity (26S proteasome [1]) | sensitivity of Sic1 deubiquitination by 26S proteasome to the inhibitor (26S proteasome [2])
1 | No inhibition | less than 50% | almost complete inhibition | O=C(O)CN(CCN(CC(=O)O)CC(=O)O)CC(=O)O [EDTA] |  | 
2 | completely inhibited |  |  | c1cnc2c(c1)ccc1cccnc12 [1,10-phenanthroline] | sensitive | 
3 |  |  |  | ubiquitin vinyl sulfone |  | not sensitive

From US7279317B2, “Modulation of COP9 signalsome isopeptidase activity” (California Institute of Technology, priority 2001, dated 2007)
